Data published in the supplement of paper PMC10307832.

Columns and labels:
Assay in all cases: relative viability (nuclei count vs DMSO), 5 days (fraction); higher = more cells survive
NCI-H1975 = test system: NCI-H1975
How it was run: (§1)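 Medians of duplicate plates are given as relative viability. That measure is the nuclei count in treated wells divided by the count in vehicle wells. Counts were taken on 4× images of lung cancer cell lines in 1536-well plates, 5 days after pin-tool dosing the day after seeding with one drug alone or a fixed anchor-drug dose plus five library-drug doses (not always all listed) in √10 steps.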

SW 900 = test system: SW 900
How it was run: as §1

NCI-H2170 = test system: NCI-H2170
How it was run: as §1

NCI-H1755 = test system: NCI-H1755
How it was run: as §1

A-427 = test system: A-427
How it was run: as §1

NCI-H23 = test system: NCI-H23
How it was run: as §1

SK-MES-1 = test system: SK-MES-1
How it was run: as §1

H3255 = test system: H3255
How it was run: as §1

EKVX = test system: EKVX
How it was run: as §1

ChaGo-K-1 = test system: ChaGo-K-1
How it was run: as §1

LOU-NH91 = test system: LOU-NH91
How it was run: as §1

HCC-366 = test system: HCC-366
How it was run: as §1

EMC-BAC-2 = test system: EMC-BAC-2
How it was run: as §1

PC-3 [JPC-3] = test system: PC-3 [JPC-3]
How it was run: as §1

NCI-H520 = test system: NCI-H520
How it was run: as §1

NCI-H1792 = test system: NCI-H1792
How it was run: as §1

COR-L 105 = test system: COR-L 105
How it was run: as §1

LK-2 = test system: LK-2
How it was run: as §1

NCI-H1734 = test system: NCI-H1734
How it was run: as §1

NCI-H596 = test system: NCI-H596
How it was run: as §1

NCI-H1666 = test system: NCI-H1666
How it was run: as §1

NCI-H441 = test system: NCI-H441
How it was run: as §1

How did the relative viability (NCI-H1975; first compound 0.04 µM) turn out when `O=C(O)c1ccc(-c2c[nH]c3ncc(-c4ccccc4)cc23)cc1C1CCCC1` + O=C(c1cc(Cc2n[nH]c(=O)c3ccccc23)ccc1F)N1CCN(C(=O)C2CC2)CC1 [Olaparib] (partner 8 µM) was run?
The relative viability was 0.724.

And the relative viability (NCI-H1975; first compound 0.1265 µM)?
The relative viability was 0.801.

What about the relative viability (NCI-H1975; first compound 0.4 µM) of the same compound?
Its relative viability is 0.842.

What about the relative viability (NCI-H1975; first compound 1.265 µM) of the same compound?
The relative viability was 0.539.

What about the relative viability (SW 900; first compound 0.04 µM) of the same compound?
The relative viability was 0.768.

What about the relative viability (SW 900; first compound 0.1265 µM) of the same compound?
The relative viability was 1.04.

What about the relative viability (SW 900; first compound 0.4 µM) of the same compound?
Its relative viability is 0.702.

What about the relative viability (SW 900; first compound 1.265 µM) of the same compound?
Its relative viability is 0.475.

What about the relative viability (NCI-H2170; first compound 0.04 µM) of the same compound?
Its relative viability is 0.632.

What about the relative viability (NCI-H2170; first compound 0.1265 µM) of the same compound?
Its relative viability is 0.606.

And the relative viability (NCI-H2170; first compound 0.4 µM)?
Its relative viability is 0.569.

What about the relative viability (NCI-H2170; first compound 1.265 µM) of the same compound?
The relative viability was 0.468.

And the relative viability (NCI-H1755; first compound 0.04 µM)?
Its relative viability is 0.879.

And the relative viability (NCI-H1755; first compound 0.1265 µM)?
Its relative viability is 0.943.

And the relative viability (NCI-H1755; first compound 0.4 µM)?
Its relative viability is 0.885.

What about the relative viability (NCI-H1755; first compound 1.265 µM) of the same compound?
The relative viability was 0.86.

And the relative viability (A-427; first compound 0.04 µM)?
Its relative viability is 0.706.

And the relative viability (A-427; first compound 0.1265 µM)?
The relative viability was 0.845.

And the relative viability (A-427; first compound 0.4 µM)?
The relative viability was 0.644.

What about the relative viability (A-427; first compound 1.265 µM) of the same compound?
Its relative viability is 0.573.

And the relative viability (NCI-H23; first compound 0.04 µM)?
The relative viability was 0.34.

And the relative viability (NCI-H23; first compound 0.1265 µM)?
The relative viability was 0.33.

And the relative viability (NCI-H23; first compound 0.4 µM)?
Its relative viability is 0.289.

And the relative viability (NCI-H23; first compound 1.265 µM)?
The relative viability was 0.271.

And the relative viability (SK-MES-1; first compound 0.04 µM)?
Its relative viability is 0.716.

What about the relative viability (SK-MES-1; first compound 0.1265 µM) of the same compound?
Its relative viability is 0.687.

What about the relative viability (SK-MES-1; first compound 0.4 µM) of the same compound?
The relative viability was 0.58.

What about the relative viability (SK-MES-1; first compound 1.265 µM) of the same compound?
Its relative viability is 0.286.

What about the relative viability (H3255; first compound 0.04 µM) of the same compound?
The relative viability was 0.574.

And the relative viability (H3255; first compound 0.1265 µM)?
Its relative viability is 0.57.

What about the relative viability (H3255; first compound 0.4 µM) of the same compound?
Its relative viability is 0.514.

And the relative viability (H3255; first compound 1.265 µM)?
Its relative viability is 0.507.

And the relative viability (EKVX; first compound 0.04 µM)?
The relative viability was 0.88.

And the relative viability (EKVX; first compound 0.1265 µM)?
The relative viability was 0.931.

And the relative viability (EKVX; first compound 0.4 µM)?
The relative viability was 0.866.

What about the relative viability (EKVX; first compound 1.265 µM) of the same compound?
Its relative viability is 0.657.

What about the relative viability (ChaGo-K-1; first compound 0.04 µM) of the same compound?
Its relative viability is 0.418.

What about the relative viability (ChaGo-K-1; first compound 0.1265 µM) of the same compound?
The relative viability was 0.429.

And the relative viability (ChaGo-K-1; first compound 0.4 µM)?
Its relative viability is 0.401.

And the relative viability (ChaGo-K-1; first compound 1.265 µM)?
The relative viability was 0.314.

And the relative viability (LOU-NH91; first compound 0.04 µM)?
The relative viability was 0.893.

What about the relative viability (LOU-NH91; first compound 0.1265 µM) of the same compound?
Its relative viability is 0.979.

And the relative viability (LOU-NH91; first compound 0.4 µM)?
Its relative viability is 0.908.

And the relative viability (LOU-NH91; first compound 1.265 µM)?
Its relative viability is 0.754.

What about the relative viability (HCC-366; first compound 0.04 µM) of the same compound?
Its relative viability is 0.362.

What about the relative viability (HCC-366; first compound 0.1265 µM) of the same compound?
The relative viability was 0.419.

What about the relative viability (HCC-366; first compound 0.4 µM) of the same compound?
Its relative viability is 0.422.

And the relative viability (HCC-366; first compound 1.265 µM)?
The relative viability was 0.376.

What about the relative viability (EMC-BAC-2; first compound 0.04 µM) of the same compound?
The relative viability was 0.453.

What about the relative viability (EMC-BAC-2; first compound 0.1265 µM) of the same compound?
The relative viability was 0.506.

What about the relative viability (EMC-BAC-2; first compound 0.4 µM) of the same compound?
The relative viability was 0.429.

And the relative viability (EMC-BAC-2; first compound 1.265 µM)?
Its relative viability is 0.368.

And the relative viability (PC-3 [JPC-3]; first compound 0.04 µM)?
Its relative viability is 1.07.

What about the relative viability (PC-3 [JPC-3]; first compound 0.1265 µM) of the same compound?
The relative viability was 1.07.

What about the relative viability (PC-3 [JPC-3]; first compound 0.4 µM) of the same compound?
The relative viability was 1.15.

And the relative viability (PC-3 [JPC-3]; first compound 1.265 µM)?
The relative viability was 0.919.

What about the relative viability (NCI-H520; first compound 0.04 µM) of the same compound?
The relative viability was 0.337.

And the relative viability (NCI-H520; first compound 0.1265 µM)?
Its relative viability is 0.416.

What about the relative viability (NCI-H520; first compound 0.4 µM) of the same compound?
The relative viability was 0.348.

And the relative viability (NCI-H520; first compound 1.265 µM)?
The relative viability was 0.271.

And the relative viability (NCI-H1792; first compound 0.04 µM)?
The relative viability was 0.422.

What about the relative viability (NCI-H1792; first compound 0.1265 µM) of the same compound?
Its relative viability is 0.655.

And the relative viability (NCI-H1792; first compound 0.4 µM)?
The relative viability was 0.446.

And the relative viability (NCI-H1792; first compound 1.265 µM)?
The relative viability was 0.405.

And the relative viability (COR-L 105; first compound 0.04 µM)?
The relative viability was 0.723.

And the relative viability (COR-L 105; first compound 0.1265 µM)?
Its relative viability is 0.682.

And the relative viability (COR-L 105; first compound 0.4 µM)?
The relative viability was 0.75.

And the relative viability (COR-L 105; first compound 1.265 µM)?
Its relative viability is 0.647.

What about the relative viability (LK-2; first compound 0.04 µM) of the same compound?
The relative viability was 0.734.

What about the relative viability (LK-2; first compound 0.1265 µM) of the same compound?
Its relative viability is 0.641.

What about the relative viability (LK-2; first compound 0.4 µM) of the same compound?
The relative viability was 0.636.

And the relative viability (LK-2; first compound 1.265 µM)?
The relative viability was 0.648.

And the relative viability (NCI-H1734; first compound 0.04 µM)?
Its relative viability is 0.562.

What about the relative viability (NCI-H1734; first compound 0.1265 µM) of the same compound?
The relative viability was 0.736.

What about the relative viability (NCI-H1734; first compound 0.4 µM) of the same compound?
Its relative viability is 0.568.

What about the relative viability (NCI-H1734; first compound 1.265 µM) of the same compound?
The relative viability was 0.495.

And the relative viability (NCI-H596; first compound 0.04 µM)?
The relative viability was 0.711.

What about the relative viability (NCI-H596; first compound 0.1265 µM) of the same compound?
Its relative viability is 0.745.

What about the relative viability (NCI-H596; first compound 0.4 µM) of the same compound?
The relative viability was 0.749.

And the relative viability (NCI-H596; first compound 1.265 µM)?
Its relative viability is 0.607.

And the relative viability (NCI-H1666; first compound 0.04 µM)?
Its relative viability is 0.781.

And the relative viability (NCI-H1666; first compound 0.1265 µM)?
The relative viability was 0.742.

What about the relative viability (NCI-H1666; first compound 0.4 µM) of the same compound?
Its relative viability is 0.741.

What about the relative viability (NCI-H1666; first compound 1.265 µM) of the same compound?
The relative viability was 0.678.

What about the relative viability (NCI-H441; first compound 0.04 µM) of the same compound?
The relative viability was 0.606.

And the relative viability (NCI-H441; first compound 0.1265 µM)?
Its relative viability is 0.563.

And the relative viability (NCI-H441; first compound 0.4 µM)?
The relative viability was 0.467.

And the relative viability (NCI-H441; first compound 1.265 µM)?
The relative viability was 0.265.
